# Laboratory results reported in ChEMBL document CHEMBL1127210, “Synthesis of 5-glycosylamino pyrimidines. A new class of compounds with potential anti-aids activity” (Bioorg Med Chem Lett, 1993).
# What was measured:
# CCRF-CEM [1] = assay: (§1) In vitro inhibitory activity against HIV infected T4 lymphocytes (CEM cell line); assay type: functional, cell-based, Homo sapiens
# CCRF-CEM [2] = assay: as §1; assay type: functional, cell-based; conditions: Homo sapiens
# [3] = Therapeutic index (IC50/EC50) was determined
# CCRF-CEM [4] = assay: Tested for in vitro anti HIV activity against T4 lymphocytes (CEM cell lines) and effective concentration was reported; assay type: functional, cell-based; conditions: Homo sapiens
Structure (SMILES),"IC50 (CCRF-CEM [1]; Homo sapiens, CCRF-CEM)",EC50 (CCRF-CEM [2]),EC50 (CCRF-CEM [4]),IC50 (CCRF-CEM [1]; ccrf-cem),selectivity ratio [3]
COc1nc(N[C@H]2OC[C@@H](O)[C@H](O)[C@H]2O)c(NC2O[C@@H](CO)[C@@H](O)[C@@H]2O)c(=O)n1C (some centres undefined),> 580 µM,–,–,–,–
COc1nc2nc(C(O)C(O)CO)cnc2c(=O)n1C (stereo in doubt; 11),–,–,–,> 220 µM,–
COc1nc2nc(C(O)C(O)CO)cnc2c(=O)n1C (stereo in doubt; 10),–,–,–,> 890 µM,–

# The next lines start with results.
"IC50 (CCRF-CEM [1]; Homo sapiens, CCRF-CEM)",EC50 (CCRF-CEM [2]),EC50 (CCRF-CEM [4]),IC50 (CCRF-CEM [1]; ccrf-cem),Structure (SMILES),selectivity ratio [3]
> 830 µM,64 µM,–,–,COc1nc(N)c(NC2O[C@H](CO)[C@@H](O)[C@H]2O)c(=O)n1C (some centres undefined),> 13
220 µM,–,140 µM,–,COc1nc(N)c(NC2O[C@H](CO)[C@H](O)[C@H]2O)c(=O)n1C (some centres undefined),> 1.6
